Results reported in patent publication US6838237B2, “Antigenically reactive regions of the hepatitis a virus polyprotein” (The United States of America as represented by the …, priority 1996, dated 2005).
Several values for one entry are separate records, joined by “and”; a condition that tells them apart may be missing. Equal entries are not always repeated.

Key:
anti-HAV-positive sera = experiment: EIA for anti-HAV: synthetic peptides adsorbed to wells, reacted with anti-HAV-positive acute sera; assay type: binding, human; conditions: for Reactivity with acute sera (reactive/tested): experiment 1: sera 1:100, anti-human IgG-HRP, cutoff P/N 3.0; for Reactivity with acute sera (percent of sera reactive): experiment 1: sera 1:100, cutoff P/N 3.0; for P/N for acute sera (mean) / P/N for acute sera (range, in parentheses) / P/N for acute sera (individual values): experiment 1; for P/N for acute sera (mean) / P/N for acute sera (range, in parentheses): OD493 positive/negative ratio of reactive sera; for P/N for acute sera (individual values): single sera listed with semicolon
Description: (§1) All anti-HAV-positive and anti-HAV-negative sera were randomly selected from a collection reposited at the Centers for Disease Control and Prevention, Atlanta, Ga. Serum specimens were collected from anti-HAV-positive patients with acute liver disease. Anti-HAV-negative serum specimens were collected from normal blood donors. All sera were initially tested by commercially available kit for the presence of anti-HAV activity (HAVAB and HAVAB-M, Abbott Laboratories, Abbott Park, Ill.)
(§2) Synthetic peptides (110 ml) at a concentration of 10 mg/ml in 0.1 M phosphate-buffered saline (PBS), pH 7.5, were adsorbed to microtiter wells (Immulon II, Dynatech Laboratories, Inc.) at room temperature for 12 h. Sera were diluted in PBS containing 0.1% Tween 20 and 10% normal goat serum (PBS-T) and 100 ml were added to each well, incubated for 60 min at 37E C, and washed with PBS containing Tween-20. […] Two different cutoffs were established for experiments 1 and 2. In experiment 1, the cutoff, expressed as a P/N ratio and equal to 3.0, was statistically established as the mean of negative controls plus at least 3.5 standard deviations (SD) above the mean, where P represents the optical density value at 493 nm (OD493) of anti-HAV-positive specimens and N represents the optical density value of negative controls. In experiment 2, a different cutoff was used to ensure statistical reliability and accurate interpretation of positive results. In this case, in addition to anti-HAV-negative sera, two irrelevant synthetic peptides were used as supplemental negative controls to determine the degree of nonspecific binding of anti-HAV sera to synthetic peptides. One cutoff, expressed as a P/N ratio and equal to 3.0, corresponded to the mean of negative serum controls plus at least 3.5 SD above the mean. A second cutoff was also expressed as a P/N ratio, where P represents the optical density value at 493 nm (OD493) for HAV peptides immunoreacting with anti-HAV-positive specimens and N represents the optical density value obtained with the irrelevant peptides. The second cutoff was equal 2.0 and corresponded to the mean of OD values obtained with the irrelevant peptides plus at least 3.5 SD above the mean. Synthetic peptides were considered immunoreactive with anti-HAV serum specimens only when both cutoffs were satisfied.

anti-HAV-negative sera = experiment: EIA for anti-HAV: synthetic peptides reacted with anti-HAV-negative sera; assay type: binding, human; conditions: experiment 1: sera 1:100, cutoff P/N 3.0
Description: as §1, §2

Sequence | Reactivity with acute sera (reactive/tested) (anti-HAV-positive sera) | Reactivity with acute sera (percent of sera reactive) (anti-HAV-positive sera) [%] | P/N for acute sera (mean) (anti-HAV-positive sera) | P/N for acute sera (range, in parentheses) (anti-HAV-positive sera) | Reactivity with negative sera (reactive/tested) (anti-HAV-negative sera) | immunoreactivity with anti-HAV-positive sera (in words) (anti-HAV-positive sera) | percent of (IgM) anti-HAV-positive sera immunoreactive with peptide (anti-HAV-positive sera) [%] | P/N for acute sera (individual values) (anti-HAV-positive sera)
SQGISDDDNDSAVAEFFQSF [YK-1368] | 26/41 | 63.4 | 9.58 | (4.27-19.82) | 1/27 |  |  | 
AGDLESSVDDPRSEEDKRFE [YK-1313] | 18/48 | 37.5 | 15.79 | (3.0-108.06) | 3/51 | broad and strong antigenic reactivity |  | 
FNASDSVGQQIKVIPVDPYF [YK-1242] | 1/41 | 2.4 | 3.1 |  | 0/46 | Very weakly reactive |  | 
RGKGEGLPGMCGGALVSSNQ [YK-1390] | 10/41 | 24.4 | 6.62 | (3.52-13.98) | 1/27 |  |  | 
LGSINQAMVTRCEPVVCYLY [YK-1347] | 13/48 | 27.1 | 4.16 | (3.18-6.2) | 2/51 |  | 27.1 | 
LDENGLLLGVHPRLAQRILF [YK-1407] | 2/41 | 4.9 |  |  | 0/27 |  |  | 3.43 and 3.98
HFLCTFTFNSNNKEYTFPIT [YK-1279] | 7/41 | 17.1 | 3.43 | (3.11-3.67) | 1/46 |  |  | 
KCITALASICQMFCFWRGDL [YK-1247] | 9/46 | 19.6 | 3.96 | (3.06-4.49) | 0/48 |  |  | 
WQRSNAEFEQNLENAQWFAF [YK-1436] | 4/41 | 9.8 | 4.49 | (3.35-5.89) | 1/27 |  |  | 
SDSVGQQIKVIPVDPYFFQM [YK-1243] | 1/41 | 2.4 | 3.47 |  | 0/46 | Very weakly reactive |  | 
DHMSIYKFMGRSHFLCTFTF [YK-1276] | 17/41 | 41.5 | 4.38 | (3.15-5.62) | 0/46 | broad and strong antigenic reactivity |  | 
VMTVEIRKQNMTEFMELWSQ [YK-1367] | 9/41 | 22.0 | 7.82 | (4.18-16.26) | 1/41 |  | 22.0 | 
NIGTGTSAYTSLNVLARFTD [YK-1224] | 9/41 | 22.0 | 3.53 | (3.09-4.17) | 0/46 |  |  | 
SDPSQGGGIKITHFTTWTSI [YK-1235] | 11/46 | 23.9 | 4.2 | (3.0-4.95) | 0/48 |  |  | 
TKPVASDYWDGYSGQLVCII [YK-1352] | 8/48 | 16.7 | 4.45 | (3.38-5.81) | 0/51 |  |  | 
NRGKMDVSGVQAPVGAITTI [YK-1268] | 7/46 | 15.2 | 9.1 | (6.07-15.25) | 2/48 |  |  | 
PLNSNAMLSTESMMSRIAAG [YK-1310] | 3/48 | 6.3 |  |  | 0/51 |  |  | 3.68 and 5.23
QRLKYAQEELSNEVLPPPRK [YK-1317] | 55/66 | 83.3 | 19.35 | (3.47-125.8) | 1/66 |  |  | 
INNVNLYYVFSKIFGKSPVF [YK-1424] | 3/41 | 7.3 | 6.69 | (3.48-10.83) | 0/27 |  |  | 
RCEPVVCYLYGKRGGGKSLT [YK-1348] | 14/48 | 29.2 | 6.96 | (3.66-15.48) | 2/51 |  | 29.2 | 
GLVRKNLVQFGVGEKNGCVR [YK-1376] | 3/41 | 7.3 | 6.71 | (3.8-12.77) | 0/27 |  |  | 
LAKTNDAIKDMSCVDLIMDG [YK-1364] | 4/41 | 9.8 | 4.9 | (3.5-6.18) | 1/41 |  |  | 
INPTPFQQGGLICAMVPGDQ [YK-1217] | 4/41 | 9.8 | 4.03 | (3.94-4.12) | 0/46 |  |  | 
FWRGDLVFDFQVFPTKYHSG [YK-1248] | 3/41 | 7.3 |  |  | 0/46 |  |  | 3.16 and 3.2
VSGCPMRLNMASLEEKGRHF [YK-1356] | 8/48 | 16.7 | 5.49 | (3.36-10.96) | 0/51 |  |  | 
